Assay [1] addresses T1, sigma receptors (Rattus norvegicus, UniProt Q9R0C9).
T1 construct: a preparation of rat brain membrane; from tissue; host or cells: rat brain membranes
In words: In vitro binding to sigma receptors with (+)[^3 H]SKF10.047. Conditions: for IC50: rat brain membrane, (+)[^3 H]SKF10.047; for IC50, haloperidol / IC50, example: ratio to haloperidol, second series, rat brain membranes, [^3 H]SKF10.047.
Experimental: Experiments on binding to sigma and PCP receptors are performed with the ligands (+)[^3 H]SKF10.047 and [^3 H]TCP, respectively, by the technique described by Largent, B. L., et al. in J. Pharmacol. Exp. Ther., 1986, Vol. 238, pp. 739-748. The principle of this technique is to place in competition the affinity of the test substance and that of a radioactive ligand specific for the receptor being studied.
The results are expressed as the IC50 of the test substance, which is the concentration at which the tritiated ligand is displaced from 50% of its binding sites in the membrane preparation used.

Assay [2] concerns cysteamine-induced gastroduodenal ulcers. In words: Cysteamine-induced gastroduodenal ulcer. Conditions: I.P. route, 30 min before ulcerogenic agent, dose inhibiting 50% of ulcers; for ED50: Rattus norvegicus, ip, 18 h. It is filed as in vivo, male Sprague-Dawley rats. The procedure:
The activity of the compounds of the invention with respect to the gastrointestinal tract was shown in the rat by their ability to inhibit gastroduodenal ulcers induced by the administration of cysteamine. In terms of practical methodology, the study is performed according to the method described by Robert, A., et al., in Digestion, 1974, Vol. 11, pp. 199-214, in groups of male Sprague-Dawley rats with an average weight of 200 g, to which a cysteamine hydrochloride solution is administered by subcutaneous injection in a dose of 400 mg/kg. The test compounds are administered to the animals 1 h or 30 min, respectively, before the ulcerogenic agent, depending on whether the oral or intraperitoneal route is used. Eighteen hours later, the rats are sacrificed by elongation; the stomach and duodenum are removed, rinsed with physiological salt solution, and pinned to a card. The antropyloroduodenal region is examined for ulcers, and the area of the ulcers, expressed in mm^2, is determined by multiplying the two main perpendicular axes of the lesion. Statistical analysis of the results is performed by means of Student's t-test for the ulcerated areas in comparison with a control group. The results obtained after intraperitoneal administration are presented in Table 3 and are expressed as the ED50, which is the effective dose (mg/kg) of compound inhibiting 50% of the cysteamine-induced ulcers. Igmesine is presented by way of comparison.

Assay [3] concerns the target PCP receptors. In words: In vitro binding to PCP receptors with [^3 H]TCP. Conditions: rat brain membrane. Here is the method: The test of binding to phenylcyclidine receptors (PCP receptors), performed in the presence of a ligand specific for PCP receptors, [^3 H]TCP, was used to investigate any undesirable interaction of the compounds of the invention with these receptors.
The principle of this technique is to place in competition the affinity of the test substance and that of a radioactive ligand specific for the receptor being studied.
The technique consists in incubating a preparation of rat brain membrane loaded with the labeled ligand specific for the receptor under study in solutions of varying concentration of the test substance. After filtration, one measures the radioactivity of the solution, which represents the displacement of this labeled ligand by the test substance.

Counter-ions that a name gives are not always drawn.

T1 sequence (Q9R0C9 whole entry): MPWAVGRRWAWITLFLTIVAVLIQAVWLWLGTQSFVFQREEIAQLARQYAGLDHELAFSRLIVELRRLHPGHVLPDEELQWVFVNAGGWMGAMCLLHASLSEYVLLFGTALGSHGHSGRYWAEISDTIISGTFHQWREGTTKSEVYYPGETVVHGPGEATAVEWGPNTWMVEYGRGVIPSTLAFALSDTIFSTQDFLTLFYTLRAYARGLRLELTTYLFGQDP

Consider `C(=C\c1ccccc1)/CC1CCCN1CC1CC1` (racemic) [Example 1.1, (±)-(E)-2-cinnamyl-1-cyclopropylmethylpyrrolidine], for which the half-maximal inhibitory concentration (IC50) in assay [1] is 34.2 nM; in assay [3], above 10000 nM. This compound returned an ED50 in assay [2] of 0.185 mg/kg.

For `C(=C\c1ccccc1)/CC1CCCN1CC1CC1` (single isomer, unassigned; (+)) [Example 1.2, (+)-(E)-2-cinnamyl-1-cyclopropylmethylpyrrolidine], the ED50 in assay [2] was below 0.1 mg/kg.

In turn, `C(=C\c1ccccc1)/CC1CCCCN1CC1CC1` (single isomer, unassigned; (+)) [Example 2A.2, (+)-(E)-2-cinnamyl-1-(cyclopropylmethyl)piperidine] gave a 50% effective dose (ED50) in assay [2] below 0.1 mg/kg.

With `CCC(C/C=C/c1ccccc1)(c1ccccc1)N(C)CC1CC1` (single isomer, unassigned; (+)) [Igmesine, (+)-N-(cyclopropylmethyl)-1-ethyl-N-methyl-1,4-diphenyl-3-butene-1-ylaminehydrochloride, reference compound], the ED50 in assay [2] came to 5.95 mg/kg.

Consider `C(=C\c1ccccc1)/CC1CCCN1CC1CC1` (single isomer, unassigned; (-)) [Example 1.3, (-)-(E)-2-cinnamyl-1-cyclopropylmethylpyrrolidine], for which the “IC50, haloperidol / IC50, example” value in assay [1] is listed as 1.6. For the same compound, the “ED50, cysteamine-induced ulcer” value in assay [2] (1080 min) was below 0.100 mg/kg.

With `C(=C\c1ccccc1)/CC1CCCCN1CC1CC1` (single isomer, unassigned; (-)) [Example 2A.3, (-)-(E)-2-cinnamyl-1-(cyclopropylmethyl)piperidine], the “IC50, haloperidol / IC50, example” value in assay [1] amounted to 1.4.

`C(=C\c1ccccc1)/CC1CCCN1CC1CCC1` (stereo not drawn) [Example 1.4, (E)-2-cinnamyl-1-cyclobutylmethylpyrrolidine]: the “affinity for sigma receptors” value in assay [1] (in words) was “strong affinity for sigma receptors”. Also, the figures for the IC50 in assay [1] and in assay [3] were 4.52 nM and above 10000 nM, respectively. In assay [2], the ED50 was 0.137 mg/kg.

As for `C(=C\c1ccccc1)/CC1CCCN1CCc1ccccc1` (stereo not drawn) [Example 1.6, (E)-2-cinnamyl-1-phenethylpyrrolidine], the “IC50, haloperidol / IC50, example” value in assay [1] is 1.3.

In assay [2], `C(=C\c1ccccc1)/CC1CCCCN1CC1CC1` (stereo not drawn) [Example 2A.1, (E)-2-cinnamyl-1-cyclopropylmethylpiperidine] had an ED50 of 0.1 mg/kg.

In the case of `C(=C\c1ccccc1)/CC1CCCCN1CC1CCC1` (stereo not drawn) [Example 2A.4, (E) -2-cinnamyl-1-cyclobutylmethylpiperidine], the “IC50, haloperidol / IC50, example” value in assay [1] stood at 2.3.

Consider `C(=C\c1ccccc1)/CC1CCCCN1CCc1ccccc1` (stereo not drawn) [Example 2A.5, (E)-2-cinnamyl-1-(phenethyl)piperidine], for which the “IC50, haloperidol / IC50, example” value in assay [1] is 1.0.

As to `C(=C/c1ccccc1)/CC1CCCCN1CC1CC1` (stereo not drawn) [Example 2A.6, (Z)-2-cinnamyl-1-cyclopropylmethylpiperidine], the figures for the IC50 in assay [1] and in assay [3] were 34.3 nM and above 10000 nM, respectively. This compound also had an ED50 in assay [2] below 0.1 mg/kg.

In the case of `Fc1ccc(/C=C\CC2CCCCN2CC2CC2)cc1` (stereo not drawn) [Example 2B.2, (Z)-2-(p-fluorocinnamyl)-1-cyclopropylmethylpiperidine], in assay [1], the “IC50, haloperidol / IC50, example” value was 1.6.

With `FC(F)(F)c1ccc(/C=C/CC2CCCCN2CC2CC2)cc1` (stereo not drawn) [Example 2G, (E)-2-(p-trifluoromethylcinnamyl)-1-cyclopropylmethylpiperidine], in assay [1], the “IC50, haloperidol / IC50, example” value is recorded as 0.8.

As for `C(=C/c1ccccc1)/CC1CCCN1CC1CC1` (stereo not drawn) [Example 2K, (Z)-2-cinnamyl-1-cyclopropylmethylpyrrolidine], the “IC50, haloperidol / IC50, example” value in assay [1] worked out at 4.3.

Turning to `Fc1ccc(/C=C/CC2CCCN2CC2CC2)cc1` (stereo not drawn) [Example 2L, (E)-2-(p-fluorocinnamyl)-1-cyclopropylmethylpyrrolidine], the “IC50, haloperidol / IC50, example” value in assay [1] is on record as 1.1.
